Tested on: female subjects with normal hepatic function, mild, moderate or severe hepatic impairment
Assay: Safety and tolerability (TEAEs, clinical laboratory, vital signs, physical examination) after a single oral dose of 20 mg E4 monohydrate in the hepatic impairment study
Type: in vivo, human
Settings: for TEAE by severity: Renal impairment, severity Mild / TEAE by severity: Vascular disorders, severity Mild / TEAE: Back pain / TEAE: Diarrhea / TEAE: Gastrointestinal disorders / TEAE: General disorders and administration site conditions / TEAE: Haemarthrosis / TEAE: Headache / TEAE: Hypertension / TEAE: Musculoskeletal and connective tissue disorders / TEAE: Nervous system disorders / TEAE: Pain in extremity / TEAE: Pancreatitis / TEAE: Pyrexia / TEAE: Renal and urinary disorders / TEAE: Renal impairment / TEAE: Total Subjects with at Least One TEAE / TEAE: Vascular disorders / TEAE by severity: Back pain, severity Mild / TEAE by severity: Back pain, severity Moderate / TEAE by severity: Diarrhea, severity Mild / TEAE by severity: Diarrhea, severity Moderate / TEAE by severity: Gastrointestinal disorders, severity Mild / TEAE by severity: Gastrointestinal disorders, severity Moderate / TEAE by severity: General disorders and administration site conditions, severity Mild / TEAE by severity: Haemarthrosis, severity Mild / TEAE by severity: Headache, severity Mild / TEAE by severity: Headache, severity Moderate / TEAE by severity: Hypertension, severity Mild / TEAE by severity: Musculoskeletal and connective tissue disorders, severity Mild / TEAE by severity: Musculoskeletal and connective tissue disorders, severity Moderate / TEAE by severity: Nervous system disorders, severity Mild / TEAE by severity: Nervous system disorders, severity Moderate / TEAE by severity: Pain in extremity, severity Mild / TEAE by severity: Pancreatitis, severity Moderate / TEAE by severity: Pyrexia, severity Mild / TEAE by severity: Renal and urinary disorders, severity Mild: single oral 20 mg
Method: This was a Phase 1, multi-centre, open-label, PK, and safety study of a single oral dose of 20 mg E4 monohydrate in female subjects with normal hepatic function (Group 1), mild hepatic impairment (Group 2), moderate hepatic impairment (Group 3), and severe hepatic impairment (Group 4), as defined using the Child-Pugh classification at Screening.
Safety and tolerability assessments consisted of treatment-emergent AEs (TEAEs), clinical laboratory, vital signs, physical examination, and gynecological examination. Assessments were performed in accordance with Table 2 and Table 3 in Section 2.5.1.
AEs/TEAEs were recorded after signing of the ICF until completion of the follow up visit. Any clinically significant observations in results of clinical laboratory, vital signs, or physical examinations were recorded as AEs.
A TEAE is defined as any event not present prior to administration of the study drug or any event already present that worsens in either severity or frequency following exposure to the study drug.
The below listed tests were to be performed by the local laboratories at time points indicated in the Schedule of Assessments (Table 2).
Systolic and diastolic blood pressure and pulse were recorded after the subject had been resting for at least 5 minutes in the supine position at time points indicated in the Schedule of Assessments (Table 2). These assessments were made using an automated device. Body temperature and respiratory rate were measured subsequently.
A complete physical examination consisting of a review of all body systems was performed at time points indicated in the Schedule of Assessments (Table 2). A symptom-directed physical examination could be conducted at any time per Investigator's discretion.
2.6.2.2 Evaluation of Safety and Tolerability Safety and tolerability were assessed through TEAEs, clinical laboratory, vital signs, and physical examination findings, and any other parameter that was relevant for safety assessment.
A listing of all individual AEs is provided. Summary tables of TEAEs are presented by system organ class (SOC) based on the MedDRA terminology list (preferred terms): a table containing the number of subjects experiencing AEs by hepatic function, a table containing the number of subjects experiencing SAEs by hepatic function (if applicable), a table by hepatic function and relationship, and a table by hepatic function and severity.

[1] = Normal hepatic function (N = 8)
[2] = Severe hepatic impairment (N = 8)

C[C@]12CC[C@@H]3c4ccc(O)cc4CC[C@H]3[C@@H]1[C@@H](O)[C@@H](O)[C@@H]2O [E4 monohydrate, estetrol monohydrate]
TEAE by severity: Renal impairment, severity Mild [1]: 0 (0.0) n (%)
TEAE by severity: Vascular disorders, severity Mild [1]: 0 (0.0) n (%)
TEAE: Back pain [1]: 1 (12.5) n (%)
TEAE: Diarrhea [1]: 1 (12.5) n (%)
TEAE: Gastrointestinal disorders [1]: 2 (25.0) n (%)
TEAE: General disorders and administration site conditions [1]: 0 (0.0) n (%)
TEAE: Haemarthrosis [1]: 0 (0.0) n (%)
TEAE: Headache [1]: 0 (0.0) n (%)
TEAE: Hypertension [1]: 0 (0.0) n (%)
TEAE: Musculoskeletal and connective tissue disorders [1]: 1 (12.5) n (%)
TEAE: Nervous system disorders [1]: 0 (0.0) n (%)
TEAE: Pain in extremity [1]: 0 (0.0) n (%)
TEAE: Pancreatitis [1]: 1 (12.5) n (%)
TEAE: Pyrexia [1]: 0 (0.0) n (%)
TEAE: Renal and urinary disorders [1]: 0 (0.0) n (%)
TEAE: Renal impairment [1]: 0 (0.0) n (%)
TEAE: Total Subjects with at Least One TEAE [1]: 2 (25.0) n (%)
TEAE: Vascular disorders [1]: 0 (0.0) n (%)
TEAE by severity: Back pain, severity Mild [2]: 1 (12.5) n (%)
TEAE by severity: Back pain, severity Moderate [2]: 0 (0.0) n (%)
TEAE by severity: Diarrhea, severity Mild [2]: 0 (0.0) n (%)
TEAE by severity: Diarrhea, severity Moderate [2]: 0 (0.0) n (%)
TEAE by severity: Gastrointestinal disorders, severity Mild [2]: 0 (0.0) n (%)
TEAE by severity: Gastrointestinal disorders, severity Moderate [2]: 0 (0.0) n (%)
TEAE by severity: General disorders and administration site conditions, severity Mild [2]: 0 (0.0) n (%)
TEAE by severity: Haemarthrosis, severity Mild [2]: 0 (0.0) n (%)
TEAE by severity: Headache, severity Mild [2]: 0 (0.0) n (%)
TEAE by severity: Headache, severity Moderate [2]: 0 (0.0) n (%)
TEAE by severity: Hypertension, severity Mild [2]: 0 (0.0) n (%)
TEAE by severity: Musculoskeletal and connective tissue disorders, severity Mild [2]: 1 (12.5) n (%)
TEAE by severity: Musculoskeletal and connective tissue disorders, severity Moderate [2]: 0 (0.0) n (%)
TEAE by severity: Nervous system disorders, severity Mild [2]: 0 (0.0) n (%)
TEAE by severity: Nervous system disorders, severity Moderate [2]: 0 (0.0) n (%)
TEAE by severity: Pain in extremity, severity Mild [2]: 0 (0.0) n (%)
TEAE by severity: Pancreatitis, severity Moderate [2]: 0 (0.0) n (%)
TEAE by severity: Pyrexia, severity Mild [2]: 0 (0.0) n (%)
TEAE by severity: Renal and urinary disorders, severity Mild [2]: 1 (12.5) n (%)
TEAE by severity: Renal impairment, severity Mild [2]: 1 (12.5) n (%)
TEAE by severity: Vascular disorders, severity Mild [2]: 0 (0.0) n (%)
TEAE: Back pain [2]: 1 (12.5) n (%)
TEAE: Diarrhea [2]: 0 (0.0) n (%)
TEAE: Gastrointestinal disorders [2]: 0 (0.0) n (%)
TEAE: General disorders and administration site conditions [2]: 0 (0.0) n (%)
TEAE: Haemarthrosis [2]: 0 (0.0) n (%)
TEAE: Headache [2]: 0 (0.0) n (%)
TEAE: Hypertension [2]: 0 (0.0) n (%)
TEAE: Musculoskeletal and connective tissue disorders [2]: 1 (12.5) n (%)
TEAE: Nervous system disorders [2]: 0 (0.0) n (%)
TEAE: Pain in extremity [2]: 0 (0.0) n (%)
TEAE: Pancreatitis [2]: 0 (0.0) n (%)
TEAE: Pyrexia [2]: 0 (0.0) n (%)
TEAE: Renal and urinary disorders [2]: 1 (12.5) n (%)
TEAE: Renal impairment [2]: 1 (12.5) n (%)
TEAE: Total Subjects with at Least One TEAE [2]: 1 (12.5) n (%)
TEAE: Vascular disorders [2]: 0 (0.0) n (%)
TEAE by severity: Back pain, severity Mild (Total (N = 32)): 1 (3.1) n (%)
TEAE by severity: Back pain, severity Moderate (Total (N = 32)): 1 (3.1) n (%)
TEAE by severity: Diarrhea, severity Mild (Total (N = 32)): 2 (6.3) n (%)
TEAE by severity: Diarrhea, severity Moderate (Total (N = 32)): 1 (3.1) n (%)
TEAE by severity: Gastrointestinal disorders, severity Mild (Total (N = 32)): 2 (6.3) n (%)
TEAE by severity: Gastrointestinal disorders, severity Moderate (Total (N = 32)): 2 (6.3) n (%)
TEAE by severity: General disorders and administration site conditions, severity Mild (Total (N = 32)): 1 (3.1) n (%)
TEAE by severity: Haemarthrosis, severity Mild (Total (N = 32)): 1 (3.1) n (%)
TEAE by severity: Headache, severity Mild (Total (N = 32)): 1 (3.1) n (%)
TEAE by severity: Headache, severity Moderate (Total (N = 32)): 1 (3.1) n (%)
TEAE by severity: Hypertension, severity Mild (Total (N = 32)): 2 (6.3) n (%)
TEAE by severity: Musculoskeletal and connective tissue disorders, severity Mild (Total (N = 32)): 3 (9.4) n (%)
TEAE by severity: Musculoskeletal and connective tissue disorders, severity Moderate (Total (N = 32)): 1 (3.1) n (%)
TEAE by severity: Nervous system disorders, severity Mild (Total (N = 32)): 1 (3.1) n (%)
TEAE by severity: Nervous system disorders, severity Moderate (Total (N = 32)): 1 (3.1) n (%)
TEAE by severity: Pain in extremity, severity Mild (Total (N = 32)): 1 (3.1) n (%)
TEAE by severity: Pancreatitis, severity Moderate (Total (N = 32)): 1 (3.1) n (%)
TEAE by severity: Pyrexia, severity Mild (Total (N = 32)): 1 (3.1) n (%)
TEAE by severity: Renal and urinary disorders, severity Mild (Total (N = 32)): 1 (3.1) n (%)
TEAE by severity: Renal impairment, severity Mild (Total (N = 32)): 1 (3.1) n (%)
TEAE by severity: Vascular disorders, severity Mild (Total (N = 32)): 2 (6.3) n (%)
TEAE: Back pain (Total (N = 32)): 2 (6.3) n (%)
TEAE: Diarrhea (Total (N = 32)): 3 (9.4) n (%)
TEAE: Gastrointestinal disorders (Total (N = 32)): 4 (12.5) n (%)
TEAE: General disorders and administration site conditions (Total (N = 32)): 1 (3.1) n (%)
TEAE: Haemarthrosis (Total (N = 32)): 1 (3.1) n (%)
TEAE: Headache (Total (N = 32)): 2 (6.3) n (%)
TEAE: Hypertension (Total (N = 32)): 2 (6.3) n (%)
TEAE: Musculoskeletal and connective tissue disorders (Total (N = 32)): 4 (12.5) n (%)
TEAE: Nervous system disorders (Total (N = 32)): 2 (6.3) n (%)
TEAE: Pain in extremity (Total (N = 32)): 1 (3.1) n (%)
TEAE: Pancreatitis (Total (N = 32)): 1 (3.1) n (%)
TEAE: Pyrexia (Total (N = 32)): 1 (3.1) n (%)
TEAE: Renal and urinary disorders (Total (N = 32)): 1 (3.1) n (%)
TEAE: Renal impairment (Total (N = 32)): 1 (3.1) n (%)
TEAE: Total Subjects with at Least One TEAE (Total (N = 32)): 9 (28.1) n (%)
TEAE: Vascular disorders (Total (N = 32)): 2 (6.3) n (%)
number of TEAEs considered related to the study drug (diarrhea, mild intensity, 1 subject in the moderate group): 1 TEAE
subjects reporting TEAE diarrhea (normal hepatic function group): 1 subjects
overall safety and tolerability (single oral dose of 20 mg, normal hepatic function, mild, moderate or severe hepatic impairment): safe and well tolerated
deaths, SAEs, other significant AEs (whole study, monohydrate): No deaths, SAEs, or other significant AEs occurred

From US20260207623A1, “USE OF ESTETROL IN HEPATICALLY IMPAIRED PATIENTS” (ESTETRA SRL, priority 2022, published 2026)
